Literature values as cited in patent US9233112B2, “Pharmaceutical compositions of cefixime” (LUPIN LIMITED, priority 2006, dated 2016).

Solubility in water: poorly soluble in water
Structure (SMILES): C=CC1=C(C(=O)O)N2C(=O)[C@@H](NC(=O)/C(=N\OCC(=O)O)c3csc(N)n3)[C@H]2SC1 [Cefixime]
